Earlier results on one compound are cited in US20120201889A1, “MODIFIED AND IMMEDIATE RELEASE FORMULATIONS OF MEMANTINE” (Forest Laboratories Holdings Ltd., priority 2005, published 2012).

For the data set the following is noted: after oral administration.

Consider `CC12CC3CC(C)(C1)CC(N)(C3)C2` [memantine, 1-amino-3,5-dimethyladamantane], for which the absolute bioavailability result is given as “approximately 100%”.
